Measurements as given in the NIST ThermoML archive (doi:10.1021/je034062r).

Assay: xn = mol fraction of the nth substance listed
Conditions: for mass density: Liquid; for surface tension liquid-gas: Pendant drop shape

C1CCCCC1 [cyclohexane] + CCCCCCC
Conditions	mass density [kg/m3]	surface tension liquid-gas [mN/m]
283.15 K, x1 = 0.1022	699.2	–
283.15 K, x1 = 0.2022	706.5	–
283.15 K, x1 = 0.3078	714.6	–
283.15 K, x1 = 0.401	722.3	–
283.15 K, x1 = 0.4984	730.8	–
283.15 K, x1 = 0.7003	750.8	–
283.15 K, x1 = 0.8054	761.5	–
283.15 K, x1 = 0.898	774.2	–
283.15 K, x1 = 1	787.9	–
287.81 K, x1 = 0.1022	–	20.91
287.81 K, x1 = 0.2022	–	21.31
287.81 K, x1 = 0.3078	–	21.65
287.81 K, x1 = 0.401	–	21.88
287.81 K, x1 = 0.4984	–	22.27
287.81 K, x1 = 0.6002	–	22.62
287.81 K, x1 = 0.7003	–	23.08
287.81 K, x1 = 0.8054	–	23.84
287.81 K, x1 = 0.898	–	24.39
287.81 K, x1 = 1	–	25.34
288.15 K, x1 = 0.1022	695	–
288.15 K, x1 = 0.2022	702.2	–
288.15 K, x1 = 0.3078	710.4	–
288.15 K, x1 = 0.401	717.9	–
288.15 K, x1 = 0.4984	726.5	–
288.15 K, x1 = 0.7003	746.4	–
288.15 K, x1 = 0.8054	758	–
288.15 K, x1 = 0.898	769.7	–
288.15 K, x1 = 1	783.2	–
293.15 K, x1 = 0.1022	690.8	–
293.15 K, x1 = 0.2022	698	–
293.15 K, x1 = 0.3078	706.1	–
293.15 K, x1 = 0.401	713.6	–
293.15 K, x1 = 0.4984	722.2	–
293.15 K, x1 = 0.7003	742	–
293.15 K, x1 = 0.8054	753.5	–
293.15 K, x1 = 0.898	765.1	–
293.15 K, x1 = 1	778.6	–
297.82 K, x1 = 0.1022	–	19.95
297.82 K, x1 = 0.2022	–	20.25
297.82 K, x1 = 0.3078	–	20.52
297.82 K, x1 = 0.401	–	20.9
297.82 K, x1 = 0.4984	–	21.21
297.82 K, x1 = 0.6002	–	21.57
297.82 K, x1 = 0.7003	–	22.14
297.82 K, x1 = 0.8054	–	22.72
297.82 K, x1 = 0.898	–	23.32
297.82 K, x1 = 1	–	24.2
298.15 K, x1 = 0.1022	686.5	–
298.15 K, x1 = 0.2022	693.6	–
298.15 K, x1 = 0.3078	701.7	–
298.15 K, x1 = 0.401	709.2	–
298.15 K, x1 = 0.4984	717.8	–
298.15 K, x1 = 0.6002	725.6	–
298.15 K, x1 = 0.7003	737.5	–
298.15 K, x1 = 0.8054	749	–
298.15 K, x1 = 0.898	760.5	–
298.15 K, x1 = 1	773.9	–
303.15 K, x1 = 0.1022	682.2	–
303.15 K, x1 = 0.2022	689.3	–
303.15 K, x1 = 0.3078	697.4	–
303.15 K, x1 = 0.401	704.8	–
303.15 K, x1 = 0.4984	713.3	–
303.15 K, x1 = 0.6002	722	–
303.15 K, x1 = 0.7003	733	–
303.15 K, x1 = 0.8054	744.4	–
303.15 K, x1 = 0.898	755.8	–
303.15 K, x1 = 1	769.2	–
307.86 K, x1 = 0.1022	–	18.91
307.86 K, x1 = 0.2022	–	19.25
307.86 K, x1 = 0.3078	–	19.58
307.86 K, x1 = 0.401	–	19.87
307.86 K, x1 = 0.4984	–	20.19
307.86 K, x1 = 0.6002	–	20.53
307.86 K, x1 = 0.7003	–	21.06
307.86 K, x1 = 0.8054	–	21.64
307.86 K, x1 = 0.898	–	22.18
307.86 K, x1 = 1	–	23.02
308.15 K, x1 = 0.1022	677.8	–
308.15 K, x1 = 0.2022	685	–
308.15 K, x1 = 0.3078	693	–
308.15 K, x1 = 0.401	700.4	–
308.15 K, x1 = 0.4984	708.9	–
308.15 K, x1 = 0.6002	718.1	–
308.15 K, x1 = 0.7003	728.4	–
308.15 K, x1 = 0.8054	739.8	–
308.15 K, x1 = 0.898	751.2	–
308.15 K, x1 = 1	764.4	–
313.15 K, x1 = 0.1022	673.5	–
313.15 K, x1 = 0.2022	680.6	–
313.15 K, x1 = 0.3078	688.6	–
313.15 K, x1 = 0.401	696	–
313.15 K, x1 = 0.4984	704.4	–
313.15 K, x1 = 0.6002	713.8	–
313.15 K, x1 = 0.7003	723.9	–
313.15 K, x1 = 0.8054	735.2	–
313.15 K, x1 = 0.898	746.5	–
313.15 K, x1 = 1	759.6	–
317.86 K, x1 = 0.1022	–	17.91
317.86 K, x1 = 0.2022	–	18.36
317.86 K, x1 = 0.3078	–	18.53
317.86 K, x1 = 0.401	–	18.82
317.86 K, x1 = 0.4984	–	19.16
317.86 K, x1 = 0.6002	–	19.55
317.86 K, x1 = 0.7003	–	20.01
317.86 K, x1 = 0.8054	–	20.56
317.86 K, x1 = 0.898	–	21.07
317.86 K, x1 = 1	–	21.84
318.15 K, x1 = 0.1022	669	–
318.15 K, x1 = 0.2022	676.1	–
318.15 K, x1 = 0.3078	684.1	–
318.15 K, x1 = 0.401	691.5	–
318.15 K, x1 = 0.4984	699.9	–
318.15 K, x1 = 0.6002	709.3	–
318.15 K, x1 = 0.7003	719.3	–
318.15 K, x1 = 0.8054	730.6	–
318.15 K, x1 = 0.898	741.8	–
318.15 K, x1 = 1	754.8	–
323.15 K, x1 = 0.1022	664.6	–
323.15 K, x1 = 0.2022	671.7	–
323.15 K, x1 = 0.3078	679.6	–
323.15 K, x1 = 0.401	686.9	–
323.15 K, x1 = 0.4984	695.4	–
323.15 K, x1 = 0.6002	704.7	–
323.15 K, x1 = 0.7003	714.7	–
323.15 K, x1 = 0.8054	725.9	–
323.15 K, x1 = 0.898	737.1	–
323.15 K, x1 = 1	750	–
327.88 K, x1 = 0.1022	–	16.83
327.88 K, x1 = 0.2022	–	17.05
327.88 K, x1 = 0.3078	–	17.41
327.88 K, x1 = 0.401	–	17.52
327.88 K, x1 = 0.4984	–	17.99
327.88 K, x1 = 0.6002	–	18.44
327.88 K, x1 = 0.7003	–	18.95
327.88 K, x1 = 0.8054	–	19.48
327.88 K, x1 = 0.898	–	19.98
327.88 K, x1 = 1	–	20.71
328.15 K, x1 = 0.1022	660.1	–
328.15 K, x1 = 0.2022	667.2	–
328.15 K, x1 = 0.3078	675.1	–
328.15 K, x1 = 0.401	682.4	–
328.15 K, x1 = 0.4984	691	–
328.15 K, x1 = 0.6002	700.1	–
328.15 K, x1 = 0.7003	710	–
328.15 K, x1 = 0.8054	721.2	–
328.15 K, x1 = 0.898	732.3	–
328.15 K, x1 = 1	745.2	–
333.15 K, x1 = 0.1022	655.5	–
333.15 K, x1 = 0.3078	670.5	–
333.15 K, x1 = 0.401	677.8	–
333.15 K, x1 = 0.4984	686.2	–
333.15 K, x1 = 0.6002	695.5	–
333.15 K, x1 = 0.7003	705.3	–
333.15 K, x1 = 0.8054	716.5	–
333.15 K, x1 = 0.898	727.5	–
333.15 K, x1 = 1	740.3	–
